Columns and labels:
in vitro = conditions: hamster, Cell viability (%), BHK-21-hACE2 cells
SARS-CoV-2 pseudovirus [1] = test: microbe, parasite or virus in culture; format: cell-based; conditions: Severe acute respiratory syndrome-related coronavirus, read-out: EC50, concentration resulting in 50% inhibition of virus replication
SARS-CoV-2 pseudovirus [2] = test: microbe, parasite or virus in culture; format: cell-based; conditions: Severe acute respiratory syndrome-related coronavirus, read-out: Inhibition rate (%), 5.0 µM, BHK-21-hACE2 cells
[3] = system: influenza virus A/Puerto Rico/8/34 (H1N1); format: cell-based; conditions: read-out: IC50, concentration resulting in 50% inhibition of virus replication; A/Puerto Rico/8/34 (H1N1) in MDCK cells

Row | SMILES | viability at 20 µM (in vitro) [%] | EC50 (SARS-CoV-2 pseudovirus [1]) [µM] | inhibition at 5 µM (SARS-CoV-2 pseudovirus [2]) [%] | IC50 [3] [µM]
1 | CCN(CC)Cc1cc(Nc2ccnc3cc(Cl)ccc23)ccc1O [Amodiaquine, amodiaquine] | 107 | 3.17 | 92.4 | 
2 | CCC(CC)O[C@@H]1C=C(C(=O)O)C[C@H](N)[C@H]1NC(C)=O [Oseltamivir carboxylate] |  |  |  | 6.4
